Measurements published in patent publication EP0728012B1, “NOVEL GnRH ANALOGUES WITH ANTITUMOUR EFFECTS AND PHARMACEUTICAL COMPOSITIONS THEREOF” (Lovas, Sandor, priority 1994, dated 1996).

What was measured:
MCF-7 = conditions: MCF-7; 30 µM active substance; conjugate, treated once; cell count on 7th day
Procedure: (§1) The procedure of treatment was as follows. After trypsinization the cells, 400,000 cells of MCF-7, MDA-MB-231 human mammary carcinoma, PC3 human prostate carcinoma or Ishikawa human endometrium tumour each were passed into Petri dishes of 10 cm in diameter. Starting from the day following transfer, the cells were treated with the substances to be tested in solution prepared with the nutrient medium during the exponential growth phase. […]

MDA-MB-231 = conditions: MDA-MB-231; 30 µM active substance; conjugate, treated once
Procedure: as §1

MXT mouse mammary tumour = assay: In vivo antitumour effect on mice bearing MXT mouse mammary tumour; parameters: species or system CBA/Ca mice
Procedure: The MXT mouse mammary carcinoma contains ER and PgR proteins; furthermore, it contains also GnRH receptors; therefore, this in vivo tumour model is suitable for studying both the direct and indirect effects. The treatment of mice bearing MXT mammary tumour was commenced on the day following transplantation. […] Table VI The animals were daily treated in s.c. route starting from the day following transplantation of MXT mouse mammary tumour. […] MI-1544: 75 µg/day/animal; MI-1892: 75 µg/day/animal.

MDA-MB-231 xenograft = assay: In vivo antitumour effect on MDA-MB-231 xenograft in immunosuppressed mice; parameters: species or system CBA/Ca mice
Procedure: The immunosuppression of mice was carried out by using the method of Steel et al. [Br. J. Cancer, 37, 224-230 (1978)]. Immunosuppression and xeno-transplantation
CBA-Ca female mice of about 6 weeks old were thymectomized and then, after one week, they were irradiated with 60Co (whole body irradiation; the lethal dose is 9.5 Gray). Within 24 hours 3 to 5 x 10^5 myelocytes were injected into the animals. Beneath the skin of the immunosuppressed mice 2 x 10^7 tumour cells or, in the case of later passages, […] were implanted. […] The treatment with steroid hormone was stopped by at least one week before beginning the investigation.
Recent investigations have begun on 28 animals bearing MCF-7 xenograft and on 28 animals bearing MDA-MB-231 xenograft. On animals bearing MCF-7 tumour the treatment was commenced in the 5th week following xeno-transplantation; the tumour volume was 205 to 225 mm^3. On animals bearing MDA-MB-231 tumour, the treatment was started in the 4th week after xeno-transplantation with a tumour volume of 140 to 150 mm^3. […] The control groups were daily treated with physiological saline s.c. (Each treated group consisting of 7 animals).
A more recent study was started on 28 animals bearing MDA-MB-231 xenograft. The treatment was begun in the 4th or 5th week following xenotransplantation. The tumour volume was 0.165 to 0.194 cm^3. […] (For treatment of the control group, see the preceding Examples). Each group consisted of 7 animals.

PC3 = assay: In vitro inhibition of cell proliferation (Example 19); type: cell-based, human; conditions: 30 µM active substance, conjugate, treated once
Procedure: (§2) The procedure of treatment was as follows. After trypsinization the cells, 400,000 cells of MCF-7, MDA-MB-231 human mammary carcinoma, PC3 human prostate carcinoma or Ishikawa human endometrium tumour each were passed into Petri dishes of 10 cm in diameter. Starting from the day following transfer, the cells were treated with the substances to be tested in solution prepared with the nutrient medium during the exponential growth phase. The cultures were treated with 1 to 50 µM (calculated for the total volume of the culture) or MI-1544 GnRH antagonist, MI-1892 chicken GnRH antagonist or SJ-1004 GnRH antagonist analogues as well as synthetic lamprey GnRH-III hormone every two days and the cell count was determined on the 7th day.

[1] = test system: cytosolic progesterone receptor (cPgR); conditions: animals bearing MCF-7 xenografts
Ishikawa = conditions: 30 µM active substance, conjugate, treated once
Procedure: as §2, with “antagonist analogues as well as synthetic lamprey GnRH-III hormone every two days and the cell count was determined” left out

[2] = MXT mouse mammary tumour, Treatment weeks: 13, 1x75 µg daily s.c.
[3] = MXT mouse mammary tumour, Treatment weeks: 20, 1x75 µg daily s.c.
[4] = Table V, treatment week 2, conjugates 1x50 µg daily s.c.
[5] = Table V, treatment week 6, MI-1892 2x25 µg, conjugates 1x50 µg daily s.c.
[6] = week 0, daily s.c., P-GFLG-1544 1 x 50 µg, P-GFLG-1892 1 x 75 µg
[7] = week 1, daily s.c., P-GFLG-1544 1 x 50 µg, P-GFLG-1892 1 x 75 µg
[8] = week 2, daily s.c., P-GFLG-1544 1 x 50 µg, P-GFLG-1892 1 x 75 µg
[9] = week 3, daily s.c., P-GFLG-1544 1 x 50 µg, P-GFLG-1892 1 x 75 µg
[10] = week 4, daily s.c., P-GFLG-1544 1 x 50 µg, P-GFLG-1892 1 x 75 µg
[11] = week 5, daily s.c., P-GFLG-1544 1 x 50 µg, P-GFLG-1892 1 x 75 µg
[12] = week 6, daily s.c., P-GFLG-1544 1 x 50 µg, P-GFLG-1892 1 x 75 µg

Ac-D-Trp^1,3,D-Cpa^2, {Lys[n-poly(N-vinyl pyrrolidone-co-maleic acid)-Gly-Phe-Leu-Gly-]}^5, [a-Asp(DEA)]^6, D-Ala^10-GnRH [P-GFLG-1892]
% Inhibition of cell division (proliferation) (MCF-7): 45% | % Inhibition of cell division (proliferation) (MDA-MB-231): 42% | Inhibition % (MXT mouse mammary tumour; [2]): 72% | Tumour volume as control (%) (MXT mouse mammary tumour; [2]): 28% | Inhibition % (MXT mouse mammary tumour; [3]): 62% | Tumour volume as control (%) (MXT mouse mammary tumour; [3]): 38% | Tumour volume (cm^3) (MXT mouse mammary tumour; day 9, 75 µg/day/animal s.c.): 0.29 cm^3 | Tumour volume as control (%) (MXT mouse mammary tumour; day 9, 75 µg/day/animal s.c.): 40% | Tumour volume (cm^3) (MXT mouse mammary tumour; day 11, 75 µg/day/animal s.c.): 0.66 cm^3 | Tumour volume as control (%) (MXT mouse mammary tumour; day 11, 75 µg/day/animal s.c.): 36% | Tumour volume (cm^3) (MXT mouse mammary tumour; day 13, 75 µg/day/animal s.c.): 0.91 cm^3 | Tumour volume as control (%) (MXT mouse mammary tumour; day 13, 75 µg/day/animal s.c.): 28% | Tumour volume (cm^3) (MXT mouse mammary tumour; day 17, 75 µg/day/animal s.c.): 1.86 cm^3 | Tumour volume as control (%) (MXT mouse mammary tumour; day 17, 75 µg/day/animal s.c.): 36% | Tumour volume (cm^3) (MXT mouse mammary tumour; day 18, 75 µg/day/animal s.c.): 3.1 cm^3 | Tumour volume as control (%) (MXT mouse mammary tumour; day 18, 75 µg/day/animal s.c.): 42% | Tumour volume (cm^3) (MXT mouse mammary tumour; day 20, 75 µg/day/animal s.c.): 3.61 cm^3 | Tumour volume as control (%) (MXT mouse mammary tumour; day 20, 75 µg/day/animal s.c.): 38% | Tumour volume (cm^3) (MXT mouse mammary tumour; day 24, 75 µg/day/animal s.c.): 6.07 cm^3 | Tumour volume as control (%) (MXT mouse mammary tumour; day 24, 75 µg/day/animal s.c.): 48% | Tumour volume (cm^3) (MXT mouse mammary tumour; day 26, 75 µg/day/animal s.c.): 8.91 cm^3 | Tumour volume as control (%) (MXT mouse mammary tumour; day 26, 75 µg/day/animal s.c.): 64% | tumour-free animals (MDA-MB-231 xenograft; MDA-MB-231 xenograft, end of the 6th week, first series): A tumour-free animal was found | Inhibition % (MDA-MB-231 xenograft; [4]): 26.5% | Tumour volume as control (%) (MDA-MB-231 xenograft; [4]): 73.5% | Inhibition % (MDA-MB-231 xenograft; [5]): 44% | Tumour volume as control (%) (MDA-MB-231 xenograft; [5]): 56% | Tumour volume (cm^3) (MDA-MB-231 xenograft; [6]): 0.15 cm^3 | Tumour volume as control (%) (MDA-MB-231 xenograft; [6]): 100% | Tumour volume (cm^3) (MDA-MB-231 xenograft; [7]): 0.21 cm^3 | Tumour volume as control (%) (MDA-MB-231 xenograft; [7]): 84% | Tumour volume (cm^3) (MDA-MB-231 xenograft; [8]): 0.25 cm^3 | Tumour volume as control (%) (MDA-MB-231 xenograft; [8]): 79% | Tumour volume (cm^3) (MDA-MB-231 xenograft; [9]): 0.27 cm^3 | Tumour volume as control (%) (MDA-MB-231 xenograft; [9]): 74% | Tumour volume (cm^3) (MDA-MB-231 xenograft; [10]): 0.34 cm^3 | Tumour volume as control (%) (MDA-MB-231 xenograft; [10]): 81% | Tumour volume (cm^3) (MDA-MB-231 xenograft; [11]): 0.33 cm^3 | Tumour volume as control (%) (MDA-MB-231 xenograft; [11]): 75% | Tumour volume (cm^3) (MDA-MB-231 xenograft; [12]): 0.33 cm^3 | Tumour volume as control (%) (MDA-MB-231 xenograft; [12]): 58% | % Inhibition of cell division (proliferation) (PC3): 51% | decrease of the uterus cPgR level [1]: 23% | % Inhibition of cell division (proliferation) (Ishikawa): 91%
